The values that follow are results of earlier work, collected in patent publication US20040253299A1, “Transdermal therapeutic system (reservoir-tts) for using pramipexole and ropinirole” (priority 2001, published 2004).

As usually defined, the bioavailability is dose-corrected exposure relative to a reference, in per cent.

For the series the following is noted: administered orally.

In the case of `CCCN(CCC)CCc1cccc2c1CC(=O)N2` [Ropinirole, 4-(2-di-n-propylaminoethyl)-2-(3H)-indolone], the bioavailability was 50%.
On to `CCCNC1CCc2nc(N)sc2C1` (centres unmarked) [pramipexole, 2-amino-6-n-propylamino-4,5,6,7-tetrahydrobenzothiazole], for which the bioavailability is given as 90%.
